Source: patent EP4620955A1, “MC4R ANTAGONIST COMPOUND, PHARMACEUTICAL COMPOSITION AND PHARMACEUTICAL USE THEREOF” (Changchun Genescience Pharmaceutical Co., Ltd., priority 2022, dated 2024)

Target: T1, MC4R (Homo sapiens, UniProt P32245)
T1 construct: expressed in transfected cells; host or cells: flipin-293-MC4 (Flp-In 293 host, hygromycin selection)
Experiment: Assay of MC4R antagonist activity in cells in vitro (cAMP assay, Melanotan I stimulation)
Format: cell-based
Details: flipin-293-MC4 cell line, Melanotan I as agonist
Description: Test Example 1: Assay of MC4R antagonist activity in cells in vitro
a. Experimental consumables:
b. Experimental steps • ✔ Cell line: flipin-293-MC4 • ✔ Cell culture medium: DMEM, 10% fetal bovine serum, 1 × PS, 200 µg/mL hygromycin • ✔ Experimental buffer: HBSS, 20 mM HEPES, 0.1% BSA, 500 µM IBMX • ✔ Positive compound: ML00253764 c. Antagonist detection • 1. Digested cells were suspended in the experimental buffer, and then inoculated into the 384-well cell culture plate. • 2. The to-be-detected compound was added to the cell plate, and incubated at 37°C for 10 min. • 3. Melanotan I was added to the cell plate, and incubated at 37°C for 30 min. • 4. Two detection reagents EU cAMP tracer and ulight anti camp were thawed and diluted with a lysis solution in the kit. • 5. The diluted detection reagents were added to the cell plate and incubated at room temperature for 1 h. • 6. Reading was carried out by Envision. (Excitation light: 340 nm, emission light: 615 nm and 665 nm) d. Data analysis • 1. %Inhibition calculation: %Inhibition = (Signalcmpd−SignalAve_VC)/(SignalAve_PC−SignalAve_VC) × 100. [formula] • Signalcmpd: compound signal value; • SignalAve_VC: negative control signal value; • SignalAve_PC: positive control signal value; • %inhibition: inhibition percentage. • 2. Calculation of IC50 of the compound using the nonlinear fitting equation in GraphPad: Y = Bottom + (Top−Bottom)/(1+10^(∧)((LogIC50−X)×HillSlope)) [formula] X: logarithmic value of the concentration of the compound; Y: inhibition percentage

T1 sequence (P32245 whole entry): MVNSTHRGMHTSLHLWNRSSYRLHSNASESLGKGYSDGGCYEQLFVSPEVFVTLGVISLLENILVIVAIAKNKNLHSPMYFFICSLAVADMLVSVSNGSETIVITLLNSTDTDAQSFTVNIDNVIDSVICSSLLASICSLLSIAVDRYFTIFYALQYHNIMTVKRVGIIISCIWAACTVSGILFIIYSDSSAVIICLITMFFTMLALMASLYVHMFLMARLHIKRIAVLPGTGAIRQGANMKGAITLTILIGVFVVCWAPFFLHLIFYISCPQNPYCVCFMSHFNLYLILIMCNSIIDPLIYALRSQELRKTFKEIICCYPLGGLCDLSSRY

Row | Structure (SMILES) | IC50
1 | COc1cc([C@@H](C)C(=O)N2C[C@@H](Nc3ccc(-c4nc(C)n(C)n4)c(C)n3)C3(CC3)C2)c(Cl)cn1 [Compound 141, (2R)-2-(5-chloro-2-methoxypyridine-4-yl)-1-[(7S)-7-{[5-(1,5-dimethyl-1H-1,2,4-triazole-3-yl)-6-methylpyridine-2-yl]amino}-5-azaspiro[2.4]heptane-5-yl]propan-1-one] | 2.88 nM
2 | COc1cc([C@@H](C)C(=O)N2C[C@@H](Nc3ccc(-c4ncn(C)n4)c(C)n3)C3(CC3)C2)c(Cl)cn1 [Compound 142, (2R)-2-(5-chloro-2-methoxypyridine-4-yl)-1-[(7S)-7-{[6-methyl-5-(1-methyl-1H-1,2,4-triazole-3-yl)pyridine-2-yl]amino}-5-azaspiro[2.4]heptane-5-yl]propan-1-one] | 3.29 nM
3 | COc1cc([C@@H](C)C(=O)N2C[C@@H](Nc3ccc(-c4cnn(C)c4)c(C)n3)C3(CC3)C2)c(F)cn1 [Compound 143, (2R)-2-(5-fluoro-2-methoxypyridine-4-yl)-1-((7S)-7-((6-methyl-5-(1-methyl-1H-pyrazol-4-yl)pyridine-2-yl)amino)-5-azaspiro[2.4]heptane-5-yl)propan-1-one] | 5.73 nM
4 | COc1cc([C@@H](C)C(=O)N2C[C@@H](Nc3ccc(-c4cnn(C)c4)c(C)n3)C3(CC3)C2)c(Cl)cn1 [Compound 144] | 1.83 nM
5 | COc1cc([C@@H](C)C(=O)N2C[C@@H](Nc3ccc(-c4cn(C)c(C)n4)c(C)n3)C3(CC3)C2)c(F)cn1 [Compound 149, (R)-1-((S)-7-((5-(1,2-dimethyl-1H-imidazol-4-yl)-6-methylpyridine-2-yl)amino)-5-azaspiro[2.4]hept-5-yl)-2-(5-fluoro-2-methoxypyridine-4-yl)propan-1-one] | 1.74 nM
6 | COc1cc([C@@H](C)C(=O)N2C[C@@H](Nc3ccc(-c4cn(C)cn4)c(C)n3)C3(CC3)C2)c(F)cn1 [Compound 150, (R)-2-(5-fluoro-2-methoxypyridine-4-yl)-1-((S)-7-((6-methyl-5-(1-methyl-1H-imidazol-4-yl)pyridine-2-yl)amino)-5-azaspiro[2.4]hept-5-yl)propan-1-one] | 1.84 nM
7 | COc1cc([C@@H](C)C(=O)N2C[C@@H](Nc3ccc(-c4nccc(C(F)F)n4)c(C)n3)C3(CC3)C2)c(F)cn1 [Compound 155, (R)-1-((S)-7-((5-(4-(difluoromethyl)pyrimidine-2-yl)-6-methylpyridine-2-yl)amino)-5-azaspiro[2.4]hept-5-yl)-2-(5-fluoro-2-methoxypyridine-4-yl)propan-1-one] | 3.04 nM
8 | COc1cc([C@@H](C)C(=O)N2C[C@@H](Nc3ccc(-c4nccc(C(F)F)n4)c(C)n3)C3(CC3)C2)c(Cl)cn1 [Compound 156, (R)-2-(5-chloro-2-methoxypyridine-4-yl)-1-((S)-7-((5-(4-(difluoromethyl)pyrimidine-2-yl)-6-methylpyridine-2-yl)amino)-5-azaspiro[2.4]hept-5-yl)propan-1-one] | 1.85 nM
9 | COc1cc([C@@H](C)C(=O)N2C[C@@H](Nc3ccc(-c4cnn(C)n4)c(C)n3)C3(CC3)C2)c(Cl)cn1 [Compound 166, (R)-2-(5-chloro-2-methoxypyridine-4-yl)-1-((S)-7-((6-methyl-5-(2-methyl-2H-1,2,3-triazol-4-yl)pyridine-2-yl)amino)-5-azaspiro[2.4]hept-5-yl)propan-1-one] | 4.03 nM
10 | COc1cc([C@@H](C)C(=O)N2C[C@@H](Nc3ccc(-c4cc(C#N)ccn4)c(C)n3)C3(CC3)C2)c(Cl)cn1 [Compound 168, 6'-(((S)-5-((R)-2-(5-chloro-2-methoxypyridine-4-yl)propionyl)-5-azaspiro[2.4]hept-7-yl)amino)-2'-methyl-[2,3'-bipyridyl]-4-carbonitrile] | 3.68 nM
11 | COc1cc([C@@H](C)C(=O)N2C[C@@H](Nc3ccc(-c4cn(C)c(C(C)(C)O)n4)c(C)n3)C3(CC3)C2)c(F)cn1 [Compound 181, (R)-2-(5-fluoro-2-methoxypyridine-4-yl)-1-((S)-7-((5-(2-(2-hydroxypropan-2-yl)-1-methyl-1H-imidazol-4-yl)-6-methylpyridine-2-yl)amino)-5-azaspiro[2.4]hept-5-yl)propan-1-one] | 1.59 nM
12 | COc1cc([C@@H](C)C(=O)N2C[C@@H](Nc3ccc(-c4cn5c(n4)CCC5)c(C)n3)C3(CC3)C2)c(F)cn1 [Compound 187, (R)-1-((S)-7-((5-(6,7-dihydro-5H-pyrrolo[1,2-a]imidazol-2-yl)-6-methylpyridine-2-yl)amino)-5-azaspiro[2.4]hept-5-yl)-2-(S-fluoro-2-methoxypyridine-4-yl)propan-1-one] | 3.42 nM
13 | COc1cc([C@@H](C)C(=O)N2C[C@@H](Nc3ccc(-c4cn(C(F)F)nn4)c(C)n3)C3(CC3)C2)c(Cl)cn1 [Compound 196, (R)-2-(5-chloro-2-methoxypyridine-4-yl)-1-((S)-7-((S-(1-(difluoromethyl)-1H-1,2,3-triazol-4-yl)-6-methylpyridine-2-yl)amino)-5-azaspiro[2.4]hept-5-yl)propan-1-one] | 4.88 nM

Next, values leading:

Row | IC50 | Structure (SMILES)
14 | 0.86 nM | COc1cc([C@@H](C)C(=O)N2C[C@@H](Nc3ccc(-c4cn(C)c(C(C)(C)O)n4)c(C)n3)C3(CC3)C2)c(Cl)cn1 [Compound 182, (R)-2-(5-chloro-2-methoxypyridine-4-yl)-1-((S)-7-((5-(2-(2-hydroxypropan-2-yl)-1-methyl-1H-imidazol-4-yl)-6-methylpyridine-2-yl)amino)-5-azaspiro[2.4]hept-5-yl)propan-1-one]
15 | 1.49 nM | COc1cc([C@@H](C)C(=O)N2C[C@@H](Nc3ccc(-c4cn(C)c(OC)n4)c(C)n3)C3(CC3)C2)c(Cl)cn1 [Compound 184, (R)-2-(5-chloro-2-methoxypyridine-4-yl)-1-((S)-7-((5-(2-methoxy-1-methyl-1H-imidazol-4-yl)-6-methylpyridine-2-yl)amino)-5-azaspiro[2.4]hept-5-yl)propan-1-one]
16 | 0.55 nM | COc1cc([C@@H](C)C(=O)N2C[C@@H](Nc3ccc(-c4cn(C)c(OC(F)F)n4)c(C)n3)C3(CC3)C2)c(Cl)cn1 [Compound 186, (R)-2-(5-chloro-2-methoxypyridine-4-yl)-1-((S)-7-((5-(2-(difluoromethoxy)-1-methyl-1H-imidazol-4-yl)-6-methylpyridine-2-yl)amino)-5-azaspiro[2.4]hept-5-yl)propan-1-one]
17 | 2.11 nM | COc1cc([C@@H](C)C(=O)N2C[C@@H](Nc3ccc(-c4cn5c(n4)CCC5)c(C)n3)C3(CC3)C2)c(Cl)cn1 [Compound 188, (R)-2-(5-chloro-2-methoxypyridine-4-yl)-1-((S)-7-((5-(6,7-dihydro-5H-pyrrolo[1,2-a]imidazol-2-yl)-6-methylpyridine-2-yl)amino)-5-azaspiro[2.4]hept-5-yl)propan-1-one]
18 | 2.25 nM | COc1cc([C@@H](C)C(=O)N2C[C@@H](Nc3ccc(-c4cn5c(n4)C(F)(F)CC5)c(C)n3)C3(CC3)C2)c(F)cn1 [Compound 189, (R)-1-((S)-7-((5-(7,7-difluoro-6,7-dihydro-5H-pyrrolo[1,2-a]imidazol-2-yl)-6-methylpyridine-2-yl)amino)-5-azaspiro[2.4]hept-5-yl)-2-(5-fluoro-2-methoxypyridine-4-yl)propan-1-one]
19 | 1.1 nM | COc1cc([C@@H](C)C(=O)N2C[C@@H](Nc3ccc(-c4cn5c(n4)C(F)(F)CC5)c(C)n3)C3(CC3)C2)c(Cl)cn1 [Compound 190, (R)-2-(5-chloro-2-methoxypyridine-4-yl)-1-((S)-7-((5-(7,7-difluoro-6,7-dihydro-5H-pyrrolo[1,2-a]imidazol-2-yl)-6-methylpyridine-2-yl)amino)-5-azaspiro[2.4]hept-5-yl)propan-1-one]
20 | 0.99 nM | COc1cc([C@@H](C)C(=O)N2CC[C@H](Nc3ccc(-c4cn(C)nn4)c(C)n3)C2)c(Cl)cn1 [Compound 195, (R)-2-(5-chloro-2-methoxypyridine-4-yl)-1-((S)-3-((6-methyl-5-(1-methyl-1H-1,2,3-triazol-4-yl)pyridine-2-yl)amino)pyrrolidine-1-yl)propan-1-one]
21 | 4.9 nM | COc1cc([C@@H](C)C(=O)N2C[C@@H](C)[C@H](Nc3ccc(-c4ncccn4)c(C)n3)C2)c(Cl)cn1 [Compound 198, (R)-2-(5-chloro-2-methoxypyridine-4-yl)-1-((3R,4S)-3-methyl-4-((6-methyl-5-(pyrimidine-2-yl)pyridine-2-yl)amino)pyrrolidine-1-yl)propan-1-one]
22 | 366 nM | COc1cc([C@@H](C)C(=O)N2C[C@@H](Nc3ccc(-c4ncccn4)c(C)n3)C(C)(C)C2)c(Cl)cn1 [Compound 199, (R)-2-(5-chloro-2-methoxypyridine-4-yl)-1-((S)-3,3-dimethyl-4-((6-methyl-5-(pyrimidine-2-yl)pyridine-2-yl)amino)pyrrolidine-1-yl)propan-1-one]
